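Results reflect a 48-hour exposure of cells in 96-well plates to compound at five concentrations. GI50 is the concentration that inhibits growth by half. TGI denotes the concentration required for complete inhibition of growth.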
Key:
Experiment in all cases: inhibition of tumour cell growth, NCI panel, 48 h
[1] = system: HS 578T breast
[2] = system: BT-549 breast
[3] = system: SK-MEL-28 melanoma
[4] = system: MDA-N
[5] = system: NCI-H460 lung
[6] = system: OVCAR-3 ovarian
[7] = system: SR leukemia
[8] = system: 786-0 renal
[9] = system: HCC-2998 colon
[10] = system: KM20L2 colon
[11] = system: XF 498 CNS

SMILES	TGI [1] [µM]	TGI [2] [µM]	TGI [3] [µM]	TGI [4] [µM]	TGI [5] [µM]	TGI [6] [µM]	TGI [7] [µM]	TGI [8] [µM]	TGI [9] [µM]	GI50 [3] [µM]	GI50 [7] [µM]	GI50 [9] [µM]	GI50 [5] [µM]	GI50 [6] [µM]	GI50 [1] [µM]	TGI [10] [µM]	GI50 [11] [µM]	TGI [11] [µM]
CCOC(=O)c1c(-c2cccc(Cl)c2)c(C(=O)OC)c(C)c2sc(C=O)nc12	50.5	33.7	34.5	56.7	50.1	31.3	–	–	–	–	–	–	–	–	–	–	–	–
OCCCSCCO	> 100	> 100	> 100	> 100	> 100	> 100	> 100	> 100	> 100	–	–	–	–	–	–	–	–	–
Cc1ccc2nc(-c3ccc(NC(=O)c4ccc(N)cc4)c(S(=O)(=O)O)c3)sc2c1	> 100	> 100	> 100	> 100	> 100	> 100	–	> 100	> 100	–	–	–	–	–	–	–	–	–
Cc1cc2ccc(OC(=O)c3ccc(N=C(N)N)cc3)cc2oc1=O	71.6	64.6	58.6	83.8	> 100	45.9	58.4	64.6	–	–	–	–	–	–	–	–	–	–
O=C(CC(c1ccccc1)C1C(=O)NC(=S)NC1=O)c1ccc([N+](=O)[O-])cc1 (configuration not stated)	> 100	> 100	> 100	> 100	> 100	> 100	> 100	> 100	> 100	–	–	–	–	–	–	–	–	–
CS(C)(=O)=Nn1c(=O)n2n(c1=O)C1c3ccccc3C2c2ccccc21	–	–	> 100	> 100	> 100	> 100	> 100	–	–	–	–	–	–	–	–	–	–	–
CCN1CCN(c2nc3ccccc3nc2C(=O)c2ccc(OC)c(OC)c2)CC1	–	65.6	27.3	97.7	50.2	60.6	24.4	25.7	9.71	–	–	–	–	–	–	–	–	–
Cc1ccc(OCC2=NC3S/C(=C/c4ccc([N+](=O)[O-])o4)C(=O)N3N2)cc1 (configuration not stated)	89	25.1	30.5	20.7	41.6	4.12	11.4	23.7	–	–	–	–	–	–	–	–	–	–
COC(=O)C1CC23C4=C(CCC41)CCC1CN4CC(C)C(CC(OC(C)=O)C12COC(C)=O)C43O (configuration not stated)	> 100	> 100	> 100	> 100	> 100	> 100	–	> 100	> 100	–	–	–	–	–	–	–	–	–
Cc1cc(C)c2c(=O)n(CC(O)CN3CCN(CCOCCO)CC3)sc2n1 (configuration not stated)	77.8	31.1	35.7	29.2	39	41.3	> 100	30.6	–	–	–	–	–	–	–	–	–	–
COc1ccc(-c2nn(-c3ccc(NC(=O)c4cc(Cl)cc(Cl)c4)cc3)cc2-c2ccncc2)cc1Cl	–	–	> 100	–	> 100	> 100	> 100	–	> 100	> 100	2.72	> 100	6.08	> 100	–	–	–	–
O=C(Cc1csc2nc(-c3ccc(Cl)cc3)cn12)N/N=C/c1ccccc1O	> 100	–	> 100	–	> 100	83.8	> 100	–	> 100	5.5	0.603	2.4	1.39	0.36	10	–	–	–
COc1cccc(/C=N/[N-]C(N)=O)c1[O-].[Ni+2].[OH3+]	–	–	1.72	–	1.65	0.596	2.64	0.474	1.02	–	–	–	–	–	–	2.15	0.152	0.331
COc1cc(C2c3cc4c(cc3[C@@H](Nc3ccc(Oc5ccccc5)cc3)C3COC(=O)[C@H]23)OCO4)cc(OC)c1O (some centres not stated)	–	–	> 100	–	12.2	> 100	–	–	13.8	–	–	–	–	–	–	> 24.3	–	> 59.8
O=C(/C=C1\N=C(c2ccccc2)N(c2nc3c(Cl)cc(Cl)cc3s2)C1=O)/C=C/c1ccccc1	> 100	> 100	> 100	> 100	> 100	> 100	–	> 100	> 100	–	–	–	–	–	–	–	–	–

Source: PubChem BioAssay (NCI)
